In patent US20170314074A1, “LPA-ASSOCIATED PROTEIN AND RNA EXPRESSION” (Intermune, Inc., priority 2014, published 2017):

System: normal human lung fibroblasts
Test: mRNA expression after LPA induction, Affymetrix Human Gene ST arrays, fibroblasts (Table 4A)
Assay type: cell-based
Details: LPA-induced fibroblasts; 1 μM BMS-986020; average of 3 experiments
Experimental: Changes in gene expression after 3 hours of LPA induction were profiled on Affymetrix Human Gene ST 2.0 microarrays; differentially expressed genes identified by ANOVA with FDR <0.05 and fold-change >1.2. Process networks associated with differentially expressed genes were defined using MetaCore. Changes in secreted protein expression after 24 hours of LPA induction were profiled on an aptamer-based proteomic platform (1129 proteins); differentially expressed proteins identified by t-test.
Total RNA was isolated from normal human lung fibroblasts, human bronchial epithelial cells, and human pulmonary alveolar epithelial cells treated for […] with LPA and/or LPAR1 inhibitor. Each treatment condition was assayed in triplicate. Samples were profiled on Affymetrix Human Gene ST Arrays 1.0 and/or 2.0 after preparation using the Ambion WT Expression Kit according to manufacturers' instructions.
Data normalization and all subsequent analyses were performed in Partek Genomics Suite (Partek, St. Louis, Mo.). Data were normalized using the Robust Multi-array Average (RMA) algorithm. Differentially expressed genes were identified by ANOVA with correction for multiple comparisons with p-value with FDR<0.05. A fold-change cut-off was not strictly applied, although the majority of the differentially expressed genes identified have fold-changes greater than 1.2. Genes were included if they were statistically significant for (1) LPA-induction and (2) response to treatment with an LPAR1 inhibitor.
In Tables 1-5 The differentially expressed secreted proteins set forth in Tables 1, 2, and 5 and the differentially expressed mRNAs set forth in Table 3 and 4 were identified by visual inspection of individual dot-plots.
For the gene and protein expression analysis primary fibroblasts (NHLF product #CC-2512 from Lonza group LTD) and primary epithelial cells (NHBE Product #CC-2540 from Lonza; HPAEpiC Product #3200 from Sciencell (USA, California)) were cultured as recommended by the manufacturer, except they were cultured on collagen coated plates. As part of the induction protocol cells were starved overnight in low (0.2 or 0.1% serum) or no serum (0%), prior to stimulation with LPA.

Cc1noc(-c2ccc(-c3ccc(C4(C(=O)O)CC4)cc3)cc2)c1NC(=O)O[C@H](C)c1ccccc1 [BMS-986020]
Effect of 1 μM BMS-986020 relative to induced cells (fold-change), BIRC3 mRNA: −3.33 fold-change | Effect of 1 μM BMS-986020 relative to induced cells (fold-change), CHIC2 mRNA: −2.40 fold-change | Effect of 1 μM BMS-986020 relative to induced cells (fold-change), CNST mRNA: −2.32 fold-change | Effect of 1 μM BMS-986020 relative to induced cells (fold-change), CTGF mRNA: −4.62 fold-change | Effect of 1 μM BMS-986020 relative to induced cells (fold-change), CYR61 mRNA: −7.53 fold-change | Effect of 1 μM BMS-986020 relative to induced cells (fold-change), DKK1 mRNA: −6.16 fold-change | Effect of 1 μM BMS-986020 relative to induced cells (fold-change), DUSP1 mRNA: −2.56 fold-change | Effect of 1 μM BMS-986020 relative to induced cells (fold-change), EFNB2 mRNA: −2.63 fold-change | Effect of 1 μM BMS-986020 relative to induced cells (fold-change), GPR37 mRNA: −3.13 fold-change | Effect of 1 μM BMS-986020 relative to induced cells (fold-change), HAS2 mRNA: −2.89 fold-change | Effect of 1 μM BMS-986020 relative to induced cells (fold-change), HBEGF mRNA: −5.41 fold-change | Effect of 1 μM BMS-986020 relative to induced cells (fold-change), IER3 mRNA: −3.28 fold-change | Effect of 1 μM BMS-986020 relative to induced cells (fold-change), IL6 mRNA: −4.08 fold-change | Effect of 1 μM BMS-986020 relative to induced cells (fold-change), KPRP mRNA: −3.81 fold-change | Effect of 1 μM BMS-986020 relative to induced cells (fold-change), KRTAP1-5 mRNA: −6.89 fold-change | Effect of 1 μM BMS-986020 relative to induced cells (fold-change), KRTAP4-12 mRNA: −3.90 fold-change | Effect of 1 μM BMS-986020 relative to induced cells (fold-change), LIF mRNA: −5.07 fold-change | Effect of 1 μM BMS-986020 relative to induced cells (fold-change), MCP-1/CCL2 mRNA: −5.99 fold-change | Effect of 1 μM BMS-986020 relative to induced cells (fold-change), MIR218-1: −2.82 fold-change | Effect of 1 μM BMS-986020 relative to induced cells (fold-change), PAI-1 mRNA: −2.43 fold-change | Effect of 1 μM BMS-986020 relative to induced cells (fold-change), PDCD1LG2 mRNA: −2.51 fold-change | Effect of 1 μM BMS-986020 relative to induced cells (fold-change), PTX3 mRNA: −2.49 fold-change | Effect of 1 μM BMS-986020 relative to induced cells (fold-change), SERPINB2 mRNA: −2.64 fold-change | Effect of 1 μM BMS-986020 relative to induced cells (fold-change), TNFAIP3 mRNA: −3.68 fold-change | Effect of 1 μM BMS-986020 relative to induced cells (fold-change), TXNIP mRNA: 4.41 fold-change | Effect of 1 μM BMS-986020 relative to induced cells (fold-change), UGCG mRNA: −2.52 fold-change | Effect of 1 μM BMS-986020 relative to induced cells (fold-change), VGLL3 mRNA: −2.97 fold-change
